From US9790180B2, “Piperidine derivatives as HDAC1/2 inhibitors” (Acetylon Pharmaceuticals, Inc., priority 2014, dated 2017)

Legend:
HDAC1 = HDAC1 (Homo sapiens (Human), UniProt Q13547); assay: HDAC enzyme assay, HDAC1; assay type: biochemical; conditions: 24 hours pre-incubation with enzyme; read-out: IC50 (nM) HDAC1
Experimental: (§1) Compounds for testing were diluted in DMSO to 50 fold the final concentration and a ten point three fold dilution series was made. The compounds were diluted in assay buffer (50 mM HEPES, pH 7.4, 100 mM KCl, 0.001% Tween-20, 0.05% BSA, 20 μM tris(2-carboxyethyl)phosphine) to 6 fold their final concentration. The HDAC enzymes (purchased from BPS Biosciences) were diluted to 1.5 fold their final concentration in assay buffer and pre-incubated with the compounds for 24 hours prior to addition of the substrate.
(§2) The substrate tripeptide substrate 3 (synthesized in house) for each enzyme was equal to the Km as determined by a substrate titration curve. The substrates were diluted in assay buffer at 6× their final concentration with 0.3 μM sequencing grade trypsin (Sigma). The substrate/trypsin mix was added to the enzyme/compound mix, the plate was shaken for 60 seconds and placed into a Spectramax M5 microtiter plate reader. The development of fluorescence was monitored for 30 min and the linear rate of the reaction was calculated. The IC50 was determined using Graph Pad Prism by a four parameter curve fit. The IC50 values obtained for the compounds of this invention are found in Table 1. Examples of the curves are found in FIGS. 1 and 4.

HDAC2 = HDAC2 (Homo sapiens (Human), UniProt Q92769); assay: HDAC enzyme assay, HDAC2; assay type: biochemical; conditions: 24 hours pre-incubation with enzyme; read-out: IC50 (nM) HDAC2
HDAC2, sequence (Q92769 whole entry): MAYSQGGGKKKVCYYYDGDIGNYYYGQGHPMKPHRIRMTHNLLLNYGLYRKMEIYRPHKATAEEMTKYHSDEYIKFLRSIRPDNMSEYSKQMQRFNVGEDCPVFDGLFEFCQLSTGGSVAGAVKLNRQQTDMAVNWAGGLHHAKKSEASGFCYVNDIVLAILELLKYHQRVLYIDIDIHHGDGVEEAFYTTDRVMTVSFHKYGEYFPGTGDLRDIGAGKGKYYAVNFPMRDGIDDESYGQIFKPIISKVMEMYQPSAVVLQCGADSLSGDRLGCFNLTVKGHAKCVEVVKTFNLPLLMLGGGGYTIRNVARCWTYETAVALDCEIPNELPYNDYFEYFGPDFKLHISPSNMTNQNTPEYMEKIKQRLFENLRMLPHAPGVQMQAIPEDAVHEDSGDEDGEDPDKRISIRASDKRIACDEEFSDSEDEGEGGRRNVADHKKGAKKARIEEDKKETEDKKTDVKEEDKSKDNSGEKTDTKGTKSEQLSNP
Experimental: as §1, §2

HDAC3 = HDAC3 (Homo sapiens (Human), UniProt O15379); assay: HDAC enzyme assay, HDAC3; assay type: biochemical; conditions: 24 hours pre-incubation with enzyme; read-out: IC50 (nM) HDAC3
HDAC3, sequence (O15379 whole entry): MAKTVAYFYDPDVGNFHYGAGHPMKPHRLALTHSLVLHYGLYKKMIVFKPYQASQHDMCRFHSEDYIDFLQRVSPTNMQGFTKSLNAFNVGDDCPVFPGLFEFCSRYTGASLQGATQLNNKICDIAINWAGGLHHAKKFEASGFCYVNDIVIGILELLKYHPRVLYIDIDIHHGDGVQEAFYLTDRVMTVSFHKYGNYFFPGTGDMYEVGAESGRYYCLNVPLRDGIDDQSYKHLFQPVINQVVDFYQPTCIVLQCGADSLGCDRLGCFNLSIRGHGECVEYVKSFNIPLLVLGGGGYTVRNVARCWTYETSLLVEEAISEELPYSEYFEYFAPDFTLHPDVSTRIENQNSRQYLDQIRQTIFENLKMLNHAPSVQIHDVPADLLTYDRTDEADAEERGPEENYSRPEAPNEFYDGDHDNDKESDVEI
HDAC3, sequence (Q9Y618 395-489 partner): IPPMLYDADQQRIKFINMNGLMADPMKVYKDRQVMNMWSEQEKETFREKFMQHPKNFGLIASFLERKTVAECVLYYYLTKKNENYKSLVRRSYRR
Experimental: as §1, §2

[1] = Rat cassette pharmacokinetics; assay type: in vivo; conditions: male, SD, plasma
Experimental: Male SD rats were fasted overnight. Compounds of the invention were dissolved in dimethyl acetamide at 10 times the final concentration, then Solutol HS 15 (BASF) was added to a final concentration of 10%. Finally 80% saline was added and vortexed to achieve a clear solution. For the IV dosing three animals were injected via the foot dorsal vein with 1 mg/kg compound. For the PO dosing 5 mg/kg of compound was delivered by oral gavage. Blood was collected via the tail vein into K2EDTA tubes at 5 minutes, 15 minutes, 30 minutes, 1 hour, 2 hours, 4 hours, 8 hours and 24 hours after dosing. The blood was centrifuged at 2000 g for 5 minutes at 4° C. to obtain plasma. The plasma was extracted with acetonitrile and the level of compound was analyzed by LC/MS/MS. The level of compound in plasma was calculated from a standard curve in rat plasma. The IV clearance and area under the curve were calculated using WinNonLin software. The dose adjusted area under the curve for the IV and oral dosing were used to calculate the oral bioavailability.

hERG channel = hERG channel (Homo sapiens (Human), UniProt Q12809); assay: hERG assay (QPatch, CHO cell line expressing hERG channels); assay type: cell-based; conditions: In vitro tox
hERG channel, sequence (Q12809 whole entry): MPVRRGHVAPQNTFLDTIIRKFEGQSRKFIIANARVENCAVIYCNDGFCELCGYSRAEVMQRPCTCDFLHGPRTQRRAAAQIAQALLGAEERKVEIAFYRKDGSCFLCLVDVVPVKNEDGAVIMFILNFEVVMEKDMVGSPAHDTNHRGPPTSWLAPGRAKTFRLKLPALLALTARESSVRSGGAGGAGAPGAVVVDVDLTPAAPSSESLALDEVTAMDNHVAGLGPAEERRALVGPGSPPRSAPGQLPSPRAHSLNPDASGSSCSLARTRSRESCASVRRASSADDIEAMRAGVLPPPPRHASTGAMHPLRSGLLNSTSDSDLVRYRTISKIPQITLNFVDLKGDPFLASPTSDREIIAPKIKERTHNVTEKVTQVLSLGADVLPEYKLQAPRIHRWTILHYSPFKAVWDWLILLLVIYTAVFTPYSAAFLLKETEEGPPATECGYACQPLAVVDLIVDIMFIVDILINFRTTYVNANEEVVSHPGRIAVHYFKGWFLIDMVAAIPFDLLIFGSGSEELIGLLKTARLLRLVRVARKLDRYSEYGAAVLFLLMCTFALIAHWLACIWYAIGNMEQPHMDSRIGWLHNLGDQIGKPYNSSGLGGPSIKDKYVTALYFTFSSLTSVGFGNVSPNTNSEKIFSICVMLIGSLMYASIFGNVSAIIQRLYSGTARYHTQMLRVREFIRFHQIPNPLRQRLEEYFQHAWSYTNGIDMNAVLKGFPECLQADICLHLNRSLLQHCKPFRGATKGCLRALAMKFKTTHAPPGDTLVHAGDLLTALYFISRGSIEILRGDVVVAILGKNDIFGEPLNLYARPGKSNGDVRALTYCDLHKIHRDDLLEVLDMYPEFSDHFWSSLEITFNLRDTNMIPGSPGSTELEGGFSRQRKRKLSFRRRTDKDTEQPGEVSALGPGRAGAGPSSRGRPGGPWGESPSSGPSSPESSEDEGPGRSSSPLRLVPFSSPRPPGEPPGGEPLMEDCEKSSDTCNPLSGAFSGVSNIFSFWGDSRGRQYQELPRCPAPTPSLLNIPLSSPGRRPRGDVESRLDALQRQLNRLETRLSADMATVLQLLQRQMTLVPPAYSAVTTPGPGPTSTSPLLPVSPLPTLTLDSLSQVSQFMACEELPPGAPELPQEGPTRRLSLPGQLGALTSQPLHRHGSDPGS
Experimental: For hERG assays, a CHO cell line stably transfected with hERG cDNA and expressing hERG channels were seeded into a QPatch plate (Sophion) at a density of 3-8×10^6 cells/ml. The cells were voltage clamped at a holding potential of −80 mV. The hERG current was activated by depolarizing at +20 mV for 5 sec, after which the current was taken back to −50 mV for 5 sec to remove the inactivation and observe the deactivating tail current. The maximum amount of tail current size was used to determine hERG current amplitude. Six doses (30, 10, 3, 1, 0.3 and 0.1 μM) of Compound 003 were chosen to obtain fitting curves and IC50. Data were analyzed using Assay Software provided by Sophion and Graphpad Prism.

[2] = tested on: CYP1A2, CYP2C9, CYP2C19, CYP3A4, CYP2D6; assay: Cyp inhibition in human liver microsomes; assay type: in vitro ADME; conditions: In vitro tox; human liver microsomes
Experimental: For Cyp inhibition, human live microsomes from BD Gentest were incubated with Compound 003 (10, 3.33, 1.11, 0.37, 0.12, 0.04, 0.01 μM) and substrate (CYP1A2: Phenacetin at 30 μM; CYP2C9: Diclofenac at 10 μM; CYP2C19: S-Mephenytoin at 35 μM; CYP3A4: Midazolam at 5 μM and Testosterone at 80 μM; CYP2D6: Bufuralol at 10 μM) for the following incubation times: CYP1A2, 2C9, 2D6: 10 minutes, 37° C.; CYP2C19: 45 minutes, 37° C.; CYP3A4: 5 minutes, 37° C. Substrate conversion was measured by liquid chromatography/mass spectrometry/mass spectrometry (LC/MS/MS). Inhibition was calculated by curve fitting in Graph Pad Prism.

[3] = rat cassette dosing, 5 mg/kg PO

HDAC1, sequence (Q13547 whole entry): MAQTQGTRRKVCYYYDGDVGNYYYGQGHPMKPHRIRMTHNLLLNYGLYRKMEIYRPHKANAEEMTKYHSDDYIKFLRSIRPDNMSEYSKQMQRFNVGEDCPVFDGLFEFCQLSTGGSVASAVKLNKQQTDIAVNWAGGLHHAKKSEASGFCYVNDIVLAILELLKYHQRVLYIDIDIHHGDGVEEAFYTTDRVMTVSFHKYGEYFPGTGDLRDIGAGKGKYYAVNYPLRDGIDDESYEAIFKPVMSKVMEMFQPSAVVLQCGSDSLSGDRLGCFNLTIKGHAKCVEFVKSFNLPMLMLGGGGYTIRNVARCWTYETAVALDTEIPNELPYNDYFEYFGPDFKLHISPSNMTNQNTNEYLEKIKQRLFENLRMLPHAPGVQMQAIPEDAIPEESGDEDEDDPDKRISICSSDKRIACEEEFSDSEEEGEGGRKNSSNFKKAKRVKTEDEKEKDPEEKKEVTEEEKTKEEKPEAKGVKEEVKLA

## Nc1ccc(-c2cccs2)cc1NC(=O)c1ccc(NC2CCN(C(=O)N3CCCC3)CC2)cc1 [Compound 006]
HDAC1
  IC50: 4.7 nM
HDAC2
  IC50: 22 nM
HDAC3
  IC50: 274 nM
[1]; 5 mg/kg, rat, oral AUC to IV AUC, dose adjusted
  bioavailability: 76%
[1]; [3]
  AUC: 31600 ng·h/mL
  Cmax: 1520 ng/mL
[1]; rat cassette dosing, 5 mg/kg PO, read-out: PO T½ (converted)
  half-life: 14.5 h
[1]; rat cassette dosing, IV 1 mg/kg, read-out: IV Clr. (converted)
  CL renal: 2.5 mL/min/kg
hERG channel
  hERG: >30 µM
[2]
  Cyp: >10 µM

## CC1(Nc2ncc(C(=O)Nc3cc(-c4cccs4)ccc3N)cn2)CCN(C(=O)Oc2ccccc2)CC1 [Compound 007]
HDAC1
  IC50: 118 nM
HDAC2
  IC50: 703 nM
HDAC3
  IC50: 929 nM

## CC1(Nc2ncc(C(=O)Nc3cc(-c4cccs4)ccc3N)cn2)CCN(C(=O)N2CCOCC2)CC1 [Compound 008]
HDAC1
  IC50: 9 nM
HDAC2
  IC50: 37 nM
HDAC3
  IC50: 124 nM

## Nc1ccc(-c2cccs2)cc1NC(=O)c1cnc(NC2CCN(C(=O)N3CCCCC3)CC2)nc1 [Compound 009]
HDAC1
  IC50: 32 nM
HDAC2
  IC50: 145 nM
HDAC3
  IC50: 250 nM

## CC1(Nc2ncc(C(=O)Nc3cc(-c4cccs4)ccc3N)cn2)CCN(C(=O)N2CCNCC2)CC1 [Compound 010]
HDAC1
  IC50: 7.3 nM
HDAC2
  IC50: 26 nM

## CN1CCN(C(=O)N2CCC(C)(Nc3ncc(C(=O)Nc4cc(-c5cccs5)ccc4N)cn3)CC2)CC1 [Compound 011]
HDAC1
  IC50: 8.5 nM
HDAC2
  IC50: 32 nM
HDAC3
  IC50: 201 nM

## CC1(Nc2ncc(C(=O)Nc3cc(-c4cccs4)ccc3N)cn2)CCN(C(=O)N2CCC(F)(F)CC2)CC1 [Compound 012]
HDAC1
  IC50: 19 nM
HDAC2
  IC50: 177 nM
HDAC3
  IC50: 1270 nM

## CC1(Nc2ccc(C(=O)Nc3cc(-c4cccs4)ccc3N)cc2)CCN(C(=O)N2CCCC2)CC1 [Compound 013]
HDAC1
  IC50: 4 nM
HDAC2
  IC50: 14 nM
HDAC3
  IC50: 412 nM

## CC1(Nc2ncc(C(=O)Nc3cc(-c4cccs4)ccc3N)cn2)CCN(C(=O)N2CCC(O)CC2)CC1 [Compound 014]
HDAC1
  IC50: 63 nM
HDAC2
  IC50: 299 nM
HDAC3
  IC50: > 2000 nM

## CC1(Nc2ccc(C(=O)Nc3cc(-c4cccs4)ccc3N)cc2)CCN(C(=O)N2CCNCC2)CC1 [Compound 015]
HDAC1
  IC50: 3.2 nM
HDAC2
  IC50: 12 nM
HDAC3
  IC50: 149 nM

## CN1CCN(C(=O)N2CCC(C)(Nc3ccc(C(=O)Nc4cc(-c5cccs5)ccc4N)cc3)CC2)CC1 [Compound 016]
HDAC1
  IC50: 3.2 nM
HDAC2
  IC50: 13 nM
HDAC3
  IC50: 145 nM

## CCC1(Nc2ccc(C(=O)Nc3cc(-c4cccs4)ccc3N)cc2)CCN(C(=O)N2CCOCC2)CC1 [Compound 017]
HDAC1
  IC50: 18 nM
HDAC2
  IC50: 99 nM
HDAC3
  IC50: 1740 nM

## Nc1ccc(-c2cccs2)cc1NC(=O)c1cnc(N2CCCC23CCN(C(=O)N2CCCC2)CC3)nc1 [Compound 018]
HDAC1
  IC50: 12 nM
HDAC2
  IC50: 78 nM
HDAC3
  IC50: 516 nM

## Nc1ccc(-c2cccs2)cc1NC(=O)c1ccc(NC2CCN(C(=O)N3CCOCC3)CC2)cc1 [Compound 020]
HDAC1
  IC50: 3.7 nM
HDAC2
  IC50: 17 nM
HDAC3
  IC50: 304 nM

## Nc1ccc(-c2cccs2)cc1NC(=O)c1ccc(NC2CCN(C(=O)C3CCCCC3)CC2)cc1 [Compound 021]
HDAC1
  IC50: 15 nM
HDAC2
  IC50: 72 nM
HDAC3
  IC50: 555 nM

## Nc1ccc(-c2cccs2)cc1NC(=O)c1ccc(NC2CCN(C(=O)C3CCOCC3)CC2)cc1 [Compound 022]
HDAC1
  IC50: 5 nM
HDAC2
  IC50: 18 nM
HDAC3
  IC50: 203 nM

## CCC1(Nc2ccc(C(=O)Nc3cc(-c4cccs4)ccc3N)cc2)CCN(C(=O)N2CCNCC2)CC1 [Compound 023]
HDAC1
  IC50: 3.9 nM
HDAC2
  IC50: 20 nM
HDAC3
  IC50: 267 nM

## Nc1ccc(-c2cccs2)cc1NC(=O)c1ccc(NC2CCN(C(=O)C3(O)CCCCC3)CC2)cc1 [Compound 024]
HDAC1
  IC50: 6 nM
HDAC2
  IC50: 26 nM
HDAC3
  IC50: 287 nM

## Nc1ccc(-c2cccs2)cc1NC(=O)c1ccc(NC2CCN(C(=O)C3(O)CCCC3)CC2)cc1 [Compound 025]
HDAC1
  IC50: 7 nM
HDAC2
  IC50: 26 nM
HDAC3
  IC50: 355 nM

## CN1CCC(Nc2ncc(C(=O)Nc3cc(-c4cccs4)ccc3N)cn2)(c2ccccc2)CC1 [Compound 026]
HDAC1
  IC50: 10 nM
HDAC2
  IC50: 72 nM
HDAC3
  IC50: 315 nM

## Nc1ccc(-c2cccs2)cc1NC(=O)c1cnc(NC2CCN(c3ccccc3)CC2)nc1 [Compound 027]
HDAC1
  IC50: 121 nM
HDAC2
  IC50: 690 nM
HDAC3
  IC50: > 2000 nM

## Nc1ccc(-c2cccs2)cc1NC(=O)c1ccc(NC2CCN(c3ccccc3)CC2)cc1 [Compound 028]
HDAC1
  IC50: 74 nM
HDAC2
  IC50: 443 nM
HDAC3
  IC50: > 2000 nM

## CC1(Nc2ccc(C(=O)Nc3cc(-c4ccncc4)ccc3N)cc2)CCN(C(=O)N2CCOCC2)CC1 [Compound 029]
HDAC2
  IC50: 17 nM
HDAC3
  IC50: 541 nM

## CC1(Nc2ccc(C(=O)Nc3cc(-c4ccncc4)ccc3N)cc2)CCN(C(=O)N2CCCC2)CC1 [Compound 030]
HDAC1
  IC50: 7.1 nM
HDAC2
  IC50: 9.4 nM
HDAC3
  IC50: 466 nM

## CC1(Nc2ccc(C(=O)Nc3cc(-c4cccnc4)ccc3N)cc2)CCN(C(=O)N2CCOCC2)CC1 [Compound 031]
HDAC1
  IC50: 91 nM
HDAC2
  IC50: 71 nM
HDAC3
  IC50: 264 nM

## Nc1ccc(-c2ccncc2)cc1NC(=O)c1ccc(NC2CCN(C(=O)N3CCCC3)CC2)cc1 [Compound 032]
HDAC1
  IC50: 17 nM
HDAC2
  IC50: 20 nM
HDAC3
  IC50: 397 nM

## Nc1ccc(-c2ccccc2)cc1NC(=O)c1cnc(N(c2ccccc2)C2CCN(C(=O)Cc3c[nH]c4ccccc34)CC2)nc1 [Compound 034]
HDAC1
  IC50: 93 nM
HDAC2
  IC50: 346 nM
HDAC3
  IC50: > 2000 nM

## Cc1[nH]c2ccccc2c1CC(=O)N1CCC(N(c2ccccc2)c2ncc(C(=O)Nc3cc(-c4ccccc4)ccc3N)cn2)CC1 [Compound 036]
HDAC1
  IC50: 74 nM
HDAC2
  IC50: 996 nM
HDAC3
  IC50: > 2000 nM

## CC1(Nc2ccc(C(=O)Nc3cc(-c4ccccc4)ccc3N)cc2C2CC2)CCN(C(=O)N2CCOCC2)CC1 [Compound 037]
HDAC1
  IC50: 432 nM
HDAC2
  IC50: 377 nM
HDAC3
  IC50: 1860 nM

## Nc1ccc(-c2ccccc2)cc1NC(=O)c1cnc(NC2CCNc3ccccc32)nc1 (centres unmarked) [Compound 038]
HDAC1
  IC50: 101 nM
HDAC2
  IC50: 319 nM
HDAC3
  IC50: > 2000 nM

## Nc1ccc(-c2ccccc2)cc1NC(=O)c1cnc(NC2CCNCC2)nc1 [Compound 039]
HDAC1
  IC50: 17 nM
HDAC2
  IC50: 59 nM
HDAC3
  IC50: 321 nM

## CN1CCC(Nc2ncc(C(=O)Nc3cc(-c4ccccc4)ccc3N)cn2)CC1 [Compound 040]
HDAC1
  IC50: 8 nM
HDAC2
  IC50: 39 nM
HDAC3
  IC50: 277 nM

## CN1CCC(Nc2ncc(C(=O)Nc3cc(-c4ccccc4)ccc3N)cn2)c2ccccc21 (centres unmarked) [Compound 042]
HDAC1
  IC50: 210 nM
HDAC2
  IC50: 714 nM
HDAC3
  IC50: > 2000 nM
